According to patent publication US9499446B2, “Zinc-essential for flora and fauna” (priority 2012, dated 2016):

What was measured:
[1] = tested on: wheat crops; assay: Experiment II: field experiments in wheat, irrigated north-west plain zone of Rajasthan; assay type: in vivo; settings: 24 kg ha^−1
Description: Field Experiments in wheat was carried out using the composition of the present invention in the soils of the irrigated north-west plain zone of Rajasthan. The soils of north-west plain zone are deficient in zinc and poor growth or deficiency symptoms appear on the wheat crops. Two foliar sprays were applied. First, during the vegetative growth stage on early appearance of the deficiency symptoms and the second foliar spray during the flag leaf initiation stage of the wheat crop. [table] The soil of the irrigated north-west plain zone of Rajasthan has a pH, of 8.27 and electric conductivity was 0.20 dS^−m. […] The diethylene triamine pentaacetic acid (DTPA) extractable zinc concentration in the soil was low.

[2] = tested on: Wheat cultivar PBW 550; assay: Experiment I: field experiments in wheat under different Zn treatments (PAU research farm and farmer's field, Jattpur); assay type: in vivo; settings: soil application 62.5 kg ha^−1
Description: Field Experiments in wheat was carried out using the composition of the present invention for two consecutive years in Punjab Agriculture University (PAU) Research Farm and Framer's field (Jattpur) loamy soil. Wheat cultivar PBW 550 seeds were sown during the first week of November. Two Zn chelates at different concentrations at two stages of wheat plant growth were applied through foliar application. In another treatment, Zn was added to the soil as basal dose at 62.5 kg ha^−1 using ZnSO4.7H2O salt. The first application of Zn chelate spray was done at maximum tillering stage and the second application was made at panicle initiation stage. Various parameters like plant height, tillers and 1000-grain weight were noted. Additionally during maturity in the month of April, the wheat grain and straw yield were noted.
The physio-chemical analyses of the soil before the start of the experiment was carried out at the two locations were the experiments were to be carried.
The plant parameters in wheat under different Zn treatments at PAU research farm and farmer's field are shown in Table 3 and Table 4 respectively and grain and straw yields in wheat under different Zn treatments at PAU research farm and farmer's field are shown in Table 5 and Table 6 respectively.

[3] = PAU research farm, Rabi 2009-2010
[4] = PAU research farm, Rabi 2010-2011

O=S(=O)([O-])[O-].[Zn+2] [ZnSO4]
1000 Grain weight [1]: 39.73 g
Ear length (cm) [1]: 10.18 cm
No. of tillers m^−1 row length [1]: 122
Yield (tonne ha^−1) Grain [1]: 4.57 tonne ha^−1
Yield (tonne ha^−1) Straw [1]: 6.61 tonne ha^−1
Zn conc [1]: 30.25 mg/kg

O.O.O.O.O.O.O.O=S(=O)([O-])[O-].[Zn+2] [ZnSO4•7H2O]
1000 grains weight [2, 3]: 38.4 g
Grain yield [2, 3]: 52.5 q ha^−1
Grain yield % increase over control [2, 3]: 10.8%
Plant height (cm) [2, 3]: 76.7 cm
Straw yield [2, 3]: 65.0 q ha^−1
Straw yield % increase over control [2, 3]: 3.7%
Tillers per square meter [2, 3]: 293
1000 grains weight [2, 4]: 38.7 g
Grain yield [2, 4]: 54.4 q ha^−1
Grain yield % increase over control [2, 4]: 13.3%
Plant height (cm) [2, 4]: 97.69 cm
Straw yield [2, 4]: 65.7 q ha^−1
Straw yield % increase over control [2, 4]: 5.5%
Tillers per square meter [2, 4]: 377
1000 grains weight ([2]; farmer's field, Rabi 2009-2010): 35.1 g
Grain yield ([2]; farmer's field, Rabi 2009-2010): 46.7 q ha^−1
Grain yield % increase over control ([2]; farmer's field, Rabi 2009-2010): 28.7%
Plant height (cm) ([2]; farmer's field, Rabi 2009-2010): 76.6 cm
Straw yield ([2]; farmer's field, Rabi 2009-2010): 55.3 q ha^−1
Straw yield % increase over control ([2]; farmer's field, Rabi 2009-2010): 9.1%
Tillers per square meter ([2]; farmer's field, Rabi 2009-2010): 272
1000 grains weight ([2]; farmer's field, Rabi 2010-2011): 34.3 g
Grain yield ([2]; farmer's field, Rabi 2010-2011): 46.0 q ha^−1
Grain yield % increase over control ([2]; farmer's field, Rabi 2010-2011): 28.5%
Plant height (cm) ([2]; farmer's field, Rabi 2010-2011): 74.7 cm
Straw yield ([2]; farmer's field, Rabi 2010-2011): 54.7 q ha^−1
Straw yield % increase over control ([2]; farmer's field, Rabi 2010-2011): 20.8%
Tillers per square meter ([2]; farmer's field, Rabi 2010-2011): 353
